Assay results: US20260317320A1, “C5AR1 ANTAGONISTS AND USES THEREOF” (Vanqua Bio, Inc., priority 2022, published 2026); call rule not given here
Read-outs that look alike come from different tables or passages of the source.

How the values were obtained:
[1] = target: T1, complement C5a receptor 1 (C5aR1) (Homo sapiens, UniProt P21730); experiment: β-arrestin recruitment via C5aR1 activation in live CHO-K1 cells (PathHunter), antagonist mode; type: cell-based; details: antagonist mode; recombinant hC5a (EC90) as competing natural agonist; live CHO-K1 cells; read-out: [Antagonist] B-arrestin2 recruitment: Average IC50
T1 construct: β-galactosidase fragment (PathHunter enzyme complementation); host or cells: CHO-K1 (PathHunter CHO-K1 C5aR1 β-arrestin cell line)
T1 sequence (P21730 1-350): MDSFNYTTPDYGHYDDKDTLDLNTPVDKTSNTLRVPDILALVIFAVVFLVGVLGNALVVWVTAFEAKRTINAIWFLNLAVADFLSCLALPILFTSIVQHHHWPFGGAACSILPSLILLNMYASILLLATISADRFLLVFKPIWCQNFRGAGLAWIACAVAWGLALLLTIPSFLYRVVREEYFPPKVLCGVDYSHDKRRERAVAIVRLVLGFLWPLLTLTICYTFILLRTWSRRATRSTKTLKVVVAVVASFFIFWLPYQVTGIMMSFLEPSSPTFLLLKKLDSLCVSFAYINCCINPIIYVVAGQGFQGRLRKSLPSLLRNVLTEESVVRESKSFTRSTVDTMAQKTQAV
Outline: (§1)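 Live CHO-K1 cells expressing β-galactosidase fragments fused to β-arrestin and C5aR1; recruitment is read by fragment complementation. In agonist mode compounds are tested alone; in antagonist mode they compete against recombinant hC5a at EC90. IC50 reported in binned ranges.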

[2] = target: T1, complement C5a receptor 1 (C5aR1); experiment: β-arrestin recruitment via C5aR1 activation in live CHO-K1 cells (PathHunter), agonist mode; type: cell-based
Outline: as §1

SMILES	IC50 [1]	[Agonist] B-arrestin2 recruitment: Average EC50 (nM) [2]	[Agonist] B-arrestin2 recruitment: Average EC50 (nM) ([2]; at 10 μM)
Cc1cnc2cc([C@H]3CC[C@H](c4c(C)cccc4F)C3)c(=O)n(Cc3ncccc3OC(F)F)c2n1 [175C, 5-((3-(Difluoromethoxy)pyridin-2-yl)methyl)-7-((1S,3S)-3-(2-fluoro-6-methylphenyl)cyclopentyl)-3-methylpyrido[2,3-b]pyrazin-6(5H)-one]	< 500 nM	Non-Active	–
Cc1cnc2cc([C@@H]3CC[C@@H](c4c(C)cccc4F)C3)c(=O)n(Cc3ncccc3OC(F)F)c2n1 [175D, 5-((3-(Difluoromethoxy)pyridin-2-yl)methyl)-7-((1R,3R)-3-(2-fluoro-6-methylphenyl)cyclopentyl)-3-methylpyrido[2,3-b]pyrazin-6(5H)-one]	500 to 5000 nM	–	Non-Active at 10 μM
Cc1cnc2cc([C@H]3CC[C@@H](c4c(C)cccc4F)C3)c(=O)n(Cc3ncccc3C(F)F)c2n1 [187A, 5-((3-(Difluoromethyl)pyridin-2-yl)methyl)-7-((1S,3R)-3-(2-fluoro-6-methylphenyl)cyclopentyl)-3-methylpyrido[2,3-b]pyrazin-6(5H)-one]	< 500 nM	–	Non-Active at 10 μM
Cc1cnc2cc([C@H]3CC[C@H](c4c(C)cccc4F)C3)c(=O)n(Cc3ncccc3C(F)F)c2n1 [187B, 5-((3-(Difluoromethyl)pyridin-2-yl)methyl)-7-((1S,3S)-3-(2-fluoro-6-methylphenyl)cyclopentyl)-3-methylpyrido[2,3-b]pyrazin-6(5H)-one]	< 500 nM	–	Non-Active at 10 μM
Cc1cnc2cc([C@@H]3CC[C@H](c4c(C)cccc4F)C3)c(=O)n(Cc3ncccc3C(F)F)c2n1 [187C, 5-((3-(Difluoromethyl)pyridin-2-yl)methyl)-7-((1R,3S)-3-(2-fluoro-6-methylphenyl)cyclopentyl)-3-methylpyrido[2,3-b]pyrazin-6(5H)-one]	< 500 nM	–	Non-Active at 10 μM
Cc1cnc2cc([C@@H]3CC[C@@H](c4c(C)cccc4F)C3)c(=O)n(Cc3ncccc3C(F)F)c2n1 [187D, 5-((3-(Difluoromethyl)pyridin-2-yl)methyl)-7-((1R,3R)-3-(2-fluoro-6-methylphenyl)cyclopentyl)-3-methylpyrido[2,3-b]pyrazin-6(5H)-one]	500 to 5000 nM	–	Non-Active at 10 μM
Cc1cnc2cc([C@H]3CC[C@@H](c4c(C)cccc4F)C3)c(=O)n(Cc3nccnc3C(F)(F)F)c2n1 [197A, 7-((1S,3R)-3-(2-Fluoro-6-methylphenyl)cyclopentyl)-3-methyl-5-((3-(trifluoromethyl)pyrazin-2-yl)methyl)pyrido[2,3-b]pyrazin-6(5H)-one]	< 500 nM	–	Non-Active at 10 μM
Cc1cnc2cc([C@H]3CC[C@H](c4c(C)cccc4F)C3)c(=O)n(Cc3nccnc3C(F)(F)F)c2n1 [197B, 7-((1S,3S)-3-(2-Fluoro-6-methylphenyl)cyclopentyl)-3-methyl-5-((3-(trifluoromethyl)pyrazin-2-yl)methyl)pyrido[2,3-b]pyrazin-6(5H)-one]	500 to 5000 nM	–	Non-Active at 10 μM
Cc1cnc2cc([C@@H]3CC[C@H](c4c(C)cccc4F)C3)c(=O)n(Cc3nccnc3C(F)(F)F)c2n1 [197C, 7-((1R,3S)-3-(2-Fluoro-6-methylphenyl)cyclopentyl)-3-methyl-5-((3-(trifluoromethyl)pyrazin-2-yl)methyl)pyrido[2,3-b]pyrazin-6(5H)-one]	5000 to 100000 nM	–	Non-Active at 10 μM
Cc1cnc2cc([C@@H]3CC[C@@H](c4c(C)cccc4F)C3)c(=O)n(Cc3nccnc3C(F)(F)F)c2n1 [197D, 7-((1R,3R)-3-(2-Fluoro-6-methylphenyl)cyclopentyl)-3-methyl-5-((3-(trifluoromethyl)pyrazin-2-yl)methyl)pyrido[2,3-b]pyrazin-6(5H)-one]	< 500 nM	Non-Active	–
Cc1cccc(F)c1[C@H]1CC[C@@H](c2cc3nccnc3n(Cc3ncccc3C(F)(F)F)c2=O)C1 [200C, 7-((1R,3S)-3-(2-Fluoro-6-methylphenyl)cyclopentyl)-5-((3-(trifluoromethyl)pyridin-2-yl)methyl)pyrido[2,3-b]pyrazin-6(5H)-one]	500 to 5000 nM	–	Non-Active at 10 μM
Cc1cccc(F)c1[C@@H]1CC[C@@H](c2cc3nccnc3n(Cc3ncccc3C(F)(F)F)c2=O)C1 [200D, 7-((1R,3R)-3-(2-Fluoro-6-methylphenyl)cyclopentyl)-5-((3-(trifluoromethyl)pyridin-2-yl)methyl)pyrido[2,3-b]pyrazin-6(5H)-one]	< 500 nM	–	Non-Active at 10 μM
Cc1ccc2cc([C@H]3C[C@H](c4c(C)cccc4F)C3)c(=O)n(Cc3ncccc3C(F)(F)F)c2n1 [243A, 3-((1r,3r)-3-(2-Fluoro-6-methylphenyl)cyclobutyl)-7-methyl-1-((3-(trifluoromethyl)pyridin-2-yl)methyl)-1,8-naphthyridin-2(1H)-one]	< 500 nM	Non-Active	–
Cc1ccc2cc([C@H]3C[C@@H](c4c(C)cccc4F)C3)c(=O)n(Cc3ncccc3C(F)(F)F)c2n1 [243B, 3-((1s,3s)-3-(2-Fluoro-6-methylphenyl)cyclobutyl)-7-methyl-1-((3-(trifluoromethyl)pyridin-2-yl)methyl)-1,8-naphthyridin-2(1H)-one]	< 500 nM	Non-Active	–
Cc1cccc(F)c1N1CCC(c2c(C)c3nccnc3n(Cc3ccccc3C(F)(F)F)c2=O)CC1 [compound 2, 7-(1-(2-Fluoro-6-methylphenyl)piperidin-4-yl)-8-methyl-5-(2-(trifluoromethyl)benzyl)pyrido[2,3-b]pyrazin-6(5H)-one]	500 to 5000 nM	Non-Active	–
COc1nccnc1Cn1c(=O)c(C2CCN(c3c(C)cccc3F)CC2)c(C)c2nccnc21 [compound 3, 7-(1-(2-Fluoro-6-methylphenyl)piperidin-4-yl)-5-((3-methoxypyrazin-2-yl)methyl)-8-methyl pyrido[2,3-b]pyrazin-6(5H)-one]	500 to 5000 nM	Non-Active	–
Cc1cccc(F)c1N1CCC(c2c(C)c3nccnc3n(Cc3nccnc3OCC(F)(F)F)c2=O)CC1 [compound 4, 7-(1-(2-Fluoro-6-methylphenyl)piperidin-4-yl)-8-methyl-5-((3-(2,2,2-trifluoroethoxy)pyrazin-2-yl)methyl)pyrido[2,3-b]pyrazin-6(5H)-one]	500 to 5000 nM	Non-Active	–
COc1nccnc1Cn1c(=O)c(C2CCN(c3c(C)cccc3F)CC2)cc2nccnc21 [compound 5, 7-(1-(2-Fluoro-6-methylphenyl)piperidin-4-yl)-5-((3-methoxypyrazin-2-yl)methyl)pyrido[2,3-b]pyrazin-6(5H)-one]	500 to 5000 nM	Non-Active	–
Cc1cccc(F)c1N1CCC(c2cc3nccnc3n(Cc3nccnc3OCC(F)(F)F)c2=O)CC1 [compound 6, 7-(1-(2-Fluoro-6-methylphenyl)piperidin-4-yl)-5-((3-(2,2,2-trifluoroethoxy)pyrazin-2-yl)methyl)pyrido[2,3-b]pyrazin-6(5H)-one]	< 500 nM	Non-Active	–
Cc1c(C2CCN(c3ccccc3C(F)(F)F)CC2)c(=O)n(Cc2ccccc2F)c2nccnc12 [compound 7, 5-(2-Fluorobenzyl)-8-methyl-7-(1-(2-(trifluoromethyl)phenyl)piperidin-4-yl)pyrido[2,3-b]pyrazin-6(5H)-one]	< 500 nM	Non-Active	–
Cc1nccnc1N1CCC(c2cc3nccnc3n(Cc3ccccc3C(F)(F)F)c2=O)CC1 [compound 8, 7-(1-(3-Methylpyrazin-2-yl)piperidin-4-yl)-5-(2-(trifluoromethyl)benzyl)pyrido[2,3-b]pyrazin-6(5H)-one]	5000 to 100000 nM	Non-Active	–
COc1nccnc1N1CCC(c2cc3nccnc3n(Cc3ccccc3C(F)(F)F)c2=O)CC1 [compound 9, 7-(1-(3-Methoxypyrazin-2-yl)piperidin-4-yl)-5-(2-(trifluoromethyl)benzyl)pyrido[2,3-b]pyrazin-6(5H)-one]	5000 to 100000 nM	Non-Active	–
O=c1c(C2CCN(c3ccccc3C(F)(F)F)CC2)cc2nccnc2n1Cc1ccccc1F [compound 10, 5-(2-fluorobenzyl)-7-(1-(2-(trifluoromethyl)phenyl)piperidin-4-yl)pyrido[2,3-b]pyrazin-6(5H)-one]	< 500 nM	Non-Active	–
Cc1c(C2CCN(c3cccnc3C(F)(F)F)CC2)c(=O)n(Cc2ccccc2F)c2nccnc12 [compound 11, 5-(2-Fluorobenzyl)-8-methyl-7-(1-(2-(trifluoromethyl)pyridin-3-yl)piperidin-4-yl)pyrido[2,3-b]pyrazin-6(5H)-one]	> 100000 nM	Non-Active	–
